From the Kinase Knowledgebase extract (Sharma et al. 2016)

Tests used:
[1] = target: MAPK14 (UniProt Q16539); assay: Enzyme Assay
[2] = target: MAPK14 (human) (UniProt Q16539); assay: Cell-Based Assay; conditions: monocyte
[3] = target: MAPK14 (UniProt Q16539); assay: Enzyme Assay; remark: listed apart in the source

Chain of MAPK14 (human) (Q16539 whole entry, looked up): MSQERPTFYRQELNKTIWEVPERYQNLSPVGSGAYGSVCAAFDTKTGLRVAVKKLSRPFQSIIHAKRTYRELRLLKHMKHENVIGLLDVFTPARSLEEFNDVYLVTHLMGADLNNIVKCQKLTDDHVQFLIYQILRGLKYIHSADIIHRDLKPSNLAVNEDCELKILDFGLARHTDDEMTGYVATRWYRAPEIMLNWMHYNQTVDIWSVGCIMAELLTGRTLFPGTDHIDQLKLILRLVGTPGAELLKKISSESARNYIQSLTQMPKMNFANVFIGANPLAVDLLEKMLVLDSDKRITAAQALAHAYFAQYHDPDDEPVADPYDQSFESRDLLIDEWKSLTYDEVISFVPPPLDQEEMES
Chain of MAPK14 (Q16539 whole entry, looked up): as above

Structure (SMILES)	IC50 [1] [µM]	IC50 [2] [µM]	IC50 [3] [µM]
CC(=O)OCCn1cnc(-c2ccc(F)cc2)c1-c1ccncc1	0.05		
Clc1nc2n(c1-c1ccncc1)CCC2	> 50		
CS(=O)(=O)c1ccc(-c2nc3n(c2-c2ccncc2)CCC3)cc1	> 10	> 10	
CC(=O)OCCc1nc(-c2ccncc2)c(-c2ccc(F)cc2)[nH]1	> 10		
O=C1CN(c2ccc(-c3nc(-c4ccc(F)cc4)c(-c4ccncc4)[nH]3)cc2)NO1	0.03		
Fc1ccc(-c2ncn(C3CCN(Cc4ccccc4)CC3)c2-c2ccncc2)cc1	0.44		
CSc1cccc(-c2ncn(CCCN3CCOCC3)c2-c2ccncc2)c1		1	
Fc1ccc(-c2ncn(CCCNCc3ccccc3)c2-c2ccncc2)cc1		0.59	
Clc1ccccc1-c1nc2n(c1-c1ccncc1)CCC2	0.25		
CC(C)(C)C1=CC(O)(C(C)(C)C)CC(c2nc(-c3ccc(F)cc3)c(-c3ccncc3)[nH]2)=C1 (configuration not stated)	> 30	> 5	> 2.5
Clc1ccc(-c2nc3n(c2-c2ccncc2)CCC3)cc1	0.05		
Fc1ccc(-c2ncn(CCCN3CCOCC3)c2-c2cccnc2)cc1	> 10		
C[S+]([O-])c1ccc(-c2nc3n(c2-c2ccncc2)CCC3)cc1 (configuration not stated)	> 10	> 10	
Cc1cc(-c2[nH]c(-c3ccc([S+](C)[O-])cc3)nc2-c2ccc(F)cc2)ccn1 (configuration not stated)		0.43	
Fc1ccc(-c2c(-c3ccncc3)nc3n2CCC3)cc1	> 10		
Fc1ccc(-c2ncn(CCCN3CCOCC3)c2-c2ccccn2)cc1	> 10		
Clc1cccc(-c2nc3n(c2-c2ccncc2)CCC3)c1	0.04	0.05	
C[S+]([O-])c1cccc(-c2ncn(CCCN3CCOCC3)c2-c2ccncc2)c1 (configuration not stated)		> 5	
Brc1ccc(-c2nc3n(c2-c2ccncc2)CCC3)cc1	3.2	0.7	
O=[N+]([O-])c1ccc(-c2nc(-c3ccc(F)cc3)c(-c3ccccc3)[nH]2)cc1	> 10	> 5	> 2.5
COc1ccc(-c2nc3n(c2-c2ccncc2)CCC3)cc1	3.6	4.2	
CSc1ccc(-c2nc3n(c2-c2ccncc2)CCC3)cc1	3.4	2.7	
Cc1cc(-c2c(-c3ccc(F)cc3)ncn2CCCN2CCOCC2)ccn1	3		
CCc1nc[nH]c1-c1ccncc1	> 30	> 5	> 2.5
C[S+]([O-])c1ccc(-c2nc(-c3cccs3)c(-c3ccncc3)[nH]2)cc1 (configuration not stated)	0.46		
CCSc1ccc(-c2nc3n(c2-c2ccncc2)CCC3)cc1	5.6	> 20	
Fc1ccc(-c2nc3n(c2-c2ccncc2)CCC3)cc1	0.066	0.17	
C[S+]([O-])c1ccc(-n2cnc(-c3ccc(F)cc3)c2-c2ccncc2)cc1 (configuration not stated)		2.3	
